Laboratory results: patent publication US11142554B2 (MASSACHUSETTS INSTITUTE OF TECHNOLOGY, priority 2015, dated 2021)
Positions of bridges follow the written chain, without caps; N, C: chain ends. Non-standard residues stand in square brackets, D forms with d. Residues, ends and D or L forms follow the SMILES beside them. S5 = C=CCCC[C@](C)(N)C(=O)O; Nle = CCCC[C@H](N)C(=O)O

Experiments:
[1] = target: T1, Mcl-1 (Homo sapiens, UniProt Q07820); test: receptor | Mcl-1; conditions: read-out: receptor | Mcl-1
Target sequence in this assay (Q07820 whole entry, looked up): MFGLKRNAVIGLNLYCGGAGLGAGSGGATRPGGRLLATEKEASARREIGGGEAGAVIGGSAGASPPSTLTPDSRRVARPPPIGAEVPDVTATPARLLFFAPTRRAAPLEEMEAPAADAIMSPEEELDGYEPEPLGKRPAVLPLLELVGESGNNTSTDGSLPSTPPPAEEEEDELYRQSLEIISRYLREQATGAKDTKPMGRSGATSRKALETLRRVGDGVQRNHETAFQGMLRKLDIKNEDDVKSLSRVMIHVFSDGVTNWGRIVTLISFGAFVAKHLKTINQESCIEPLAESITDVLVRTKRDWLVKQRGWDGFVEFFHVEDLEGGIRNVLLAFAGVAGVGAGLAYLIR

[2] = target: T2, Bcl-xL (Homo sapiens, UniProt Q07817); test: receptor | Bcl-xL
Target sequence in this assay (Q07817 whole entry, looked up): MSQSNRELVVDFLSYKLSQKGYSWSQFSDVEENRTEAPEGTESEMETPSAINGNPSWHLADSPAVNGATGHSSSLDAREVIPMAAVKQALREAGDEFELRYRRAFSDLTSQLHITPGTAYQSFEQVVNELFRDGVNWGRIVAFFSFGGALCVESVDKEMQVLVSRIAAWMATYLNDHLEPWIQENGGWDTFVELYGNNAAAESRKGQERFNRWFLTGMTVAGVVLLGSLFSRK

[3] = target: T3, Bcl-2 (Homo sapiens, UniProt P10415); test: receptor | Bcl-2
Target sequence in this assay (P10415 whole entry, looked up): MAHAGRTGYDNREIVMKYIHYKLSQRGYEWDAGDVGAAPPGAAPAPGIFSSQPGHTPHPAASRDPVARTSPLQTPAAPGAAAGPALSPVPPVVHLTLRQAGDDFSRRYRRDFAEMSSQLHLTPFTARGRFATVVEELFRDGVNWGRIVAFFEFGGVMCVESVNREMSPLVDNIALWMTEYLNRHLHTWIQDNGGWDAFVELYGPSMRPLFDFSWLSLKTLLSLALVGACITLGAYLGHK

[4] = target: Bfl-1 (Homo sapiens, UniProt Q16548); test: receptor | Bfl-1
[5] = target: Bcl-w (Homo sapiens, UniProt Q92843); test: receptor | Bcl-w
[6] = system: Bcl-2/Myc 2924 cells
Description: (§1) A whole-cell BH3 profiling assay was used to test the specificity of our Mcl-1-binding peptides in several cell lines with differing dependencies on Bcl-2, Mcl-1, Bcl-xL, or Bfl-1. In this assay, permeabilized cells were treated with increasing doses of BH3 peptides, and mitochondrial outer membrane permeabilization (MOMP) was monitored using the dye JC-1 (see below). Mcl-1/Myc 2640 is an engineered murine leukemia cell line overexpressing murine Mcl-1 and Myc, and Bcl-2/Myc 2924 is a similarly engineered cell line overexpressing human Bcl-2.
(§2) Assay plates were produced by serial dilution of each peptide from 200 μM to 0.2 nM using 10-fold dilutions in DTEB (Derived from Trehalose Experimental Buffer: 135 mM trehalose, 50 mM KCl, 20 μM EDTA, 20 μM EGTA, 0.1% BSA, 5 mM succinate, 10 mM HEPES-KOH pH 7.5) containing 0.005% w/v digitonin, 10 mM 2-mercaptoethanol, 2 μM JC-1, and 20 mg mL-1 oligomycin. Triplicate wells for each peptide were made for each cell line by adding 15 μL of the peptide dilutions to each well of a black, untreated 384-well plate. Control wells containing no peptide or 20 μM FCCP (carbonyl cyanide-4(trifluoromethoxy) phenylhydrazone, a chemical uncoupler of oxidative phosphorylation) were included for zero and complete depolarization, respectively. Multiple plates were produced from the same stock and frozen at −80 ° C. for later use. Frozen plates were brought to RT prior to use, cells were suspended in DTEB at a density of 1.34×10^6 cells/mL, and 15 μL of cell suspension was added to each well of the dilution series to yield wells ranging from 0.1 nM to 100 μM peptide and 20000 cells/well. Fluorescence of JC-1 aggregates was measured at 590 nm with 545 nm excitation on a Tecan Safire2 at 5 min intervals for 3 h. The area under each signal-vs-time curve was calculated and normalized to the untreated and FCCP values to produce the percent depolarization. Curves were plotted as the log [peptide] vs percent depolarization, with sigmoidal dose—response curves fitted using Graphpad PRISM 6.

[7] = system: Pfeiffer cells; conditions: for depolarization response (in words): Pfeiffer
Description: as §1, §2

[8] = system: MDA-MB-231 cells
Description: as §1, §2

[9] = system: Mcl-1/Myc 2640 cells
Description: as §1, §2

[10] = target: T3, Bcl-2; test: Fluorescence anisotropy direct binding of N-terminal fluorescein peptides
Target sequence in this assay (P10415 whole entry): as the sequence (P10415 whole entry, looked up) above

[11] = target: T2, Bcl-xL; test: as above
Target sequence in this assay (Q07817 whole entry): as the sequence (Q07817 whole entry, looked up) above

[12] = target: T4, Bcl-w (Homo sapiens, UniProt Q92843); test: as above
T4 sequence (Q92843 1-193): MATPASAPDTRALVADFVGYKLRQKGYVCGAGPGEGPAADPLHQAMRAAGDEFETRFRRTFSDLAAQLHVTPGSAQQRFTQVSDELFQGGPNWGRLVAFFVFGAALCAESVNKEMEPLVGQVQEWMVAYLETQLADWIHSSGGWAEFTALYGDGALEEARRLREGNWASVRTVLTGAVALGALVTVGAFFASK

[13] = target: T5, Bfl-1 (Homo sapiens, UniProt Q16548); test: as above
T5 sequence (Q16548 1-175): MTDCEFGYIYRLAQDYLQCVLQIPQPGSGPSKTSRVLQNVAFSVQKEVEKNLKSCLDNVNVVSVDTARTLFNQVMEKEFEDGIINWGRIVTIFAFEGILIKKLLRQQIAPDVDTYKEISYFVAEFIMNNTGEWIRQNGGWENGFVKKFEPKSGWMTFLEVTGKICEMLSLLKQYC

[14] = target: T1, Mcl-1; test: as above; conditions: 23-residue peptide with N-terminal fluorescein
Target sequence in this assay (Q07820 whole entry): as the sequence (Q07820 whole entry, looked up) above

[15] = system: MEF cells; test: Lactate dehydrogenase (LDH) release assay, non-specific cell lysis; type: cell-based
Source text: FIG. 5|Results of studies assessing non-specific cell-lysis by internally cross-linked peptides. Lactate dehydrogenase release assays (LDH) identified membrane-disruptive peptides 3 (SEQ ID NO:9) and 7 (SEQ ID NO:7); tested in MEF cells. Peptides 7, 10, 3, and 11-20 are SEQ ID NOs: 7, 8, 9, and 10-19 respectively.
Additional studies examined the non-specific cell lysis activity of peptide 3 (SEQ ID NO:9) (M1 SAHBd) and certain sequence variants of peptide 3 (SEQ ID NO:9) (M1 SAHBd).

[16] = target: T1, Mcl-1; test: IC50 (nM)
Source text: Table printed on a drawing sheet, FIG. 8
Head of the field: IC50 (nM)
The patent's description of the figure: FIG. 8|Results of studies assessing cell permeability of various internally cross-linked peptides. Stapled peptides based on MB2 lead peptide are shown. […] MB2 (SEQ ID NO:23); B1 SAHBa (SEQ ID NO:24); B1 SAHBf (SEQ ID NO:25); B1 DAHBd (SEQ ID NO:26); B2 SAHBd (SEQ ID NO:27); B3 SAHBd (SEQ ID NO:28); B1 SAHBg (SEQ ID NO:29); B1 SAHBh (SEQ ID NO:30).

[17] = parent: Bim for Bim_A2eT, Bim_A2eT for its point mutants, A12/B3 for MS1/MS2

Compound: CC[C@H](C)[C@H](NC(=O)[C@H](CCCNC(=N)N)NC(=O)[C@H](CCCNC(=N)N)NC(=O)[C@H](CC(C)C)NC(=O)CNC(=O)[C@H](CCC(N)=O)NC(=O)[C@@H](NC(=O)[C@@H](NC(=O)[C@H](Cc1c[nH]c2ccccc12)NC(=O)[C@@H](NC(=O)[C@H](CCC(=O)O)NC(=O)[C@@H]1CCCN1C(=O)[C@@H](N)CCCNC(=N)N)[C@@H](C)CC)[C@@H](C)CC)[C@@H](C)O)C(=O)NCC(=O)N[C@@H](CC(=O)O)C(=O)N[C@@H](CCC(=O)O)C(=O)N[C@@H](Cc1ccccc1)C(=O)N[C@@H](CC(N)=O)C(=O)N[C@@H](C)C(=O)N[C@@H](Cc1ccc(O)cc1)C(=O)N[C@@H](Cc1ccc(O)cc1)C(=O)N[C@@H](C)C(=O)N[C@@H](CCCNC(=N)N)C(N)=O [Bim_A2eT_E2gG]
- Kd [1]: 1.6 ± 0.57 nM
- Kd [2]: 37 ± 7 nM
- Kd [3]: 150 ± 27 nM
- Kd [4]: 250 ± 63 nM
- Kd [5]: 94 ± 36 nM

Compound: CC[C@H](C)[C@H](NC(=O)[C@H](CCC(=O)O)NC(=O)[C@H](CC(=O)O)NC(=O)CNC(=O)[C@H](CC(C)C)NC(=O)[C@H](CCCNC(=N)N)NC(=O)[C@H](CCC(N)=O)NC(=O)[C@H](CC(C)C)NC(=O)[C@H](CO)NC(=O)[C@H](CCC(N)=O)NC(=O)[C@@H](NC(=O)[C@H](CC(C)C)NC(=O)[C@H](Cc1c[nH]c2ccccc12)NC(=O)[C@@H](NC(=O)[C@H](CCC(=O)O)NC(=O)[C@@H]1CCCN1C(=O)[C@H](CCCNC(=N)N)NC(C)=O)[C@@H](C)CC)[C@@H](C)O)C(=O)N[C@@H](CC(N)=O)C(=O)N[C@@H](C)C(=O)N[C@@H](Cc1ccc(O)cc1)C(=O)N[C@@H](Cc1ccc(O)cc1)C(=O)N[C@@H](C)C(=O)N[C@@H](CCCNC(=N)N)C(N)=O [MS2]
- EC50 [6]: > 100000 nM
- EC50 [7]: > 100000 nM
- EC50 [8]: > 100000 nM
- EC50 [9]: 700 nM
- binding affinity to Bcl-2 (in words) [10]: micromolar affinity
- reduction in Bcl-2 binding relative to the peptide without the mutation [10, 17]: ~100 fold
- binding affinity to Bcl-xL (in words) [11]: micromolar affinity
- reduction in Bcl-xL binding relative to the peptide without the mutation [11, 17]: ~100 fold
- binding affinity to Bcl-w (in words) [12]: hundred-nanomolar range
- reduction in Bcl-w binding relative to the peptide without the mutation [12, 17]: ~10 fold
- binding affinity to Bfl-1 (in words) [13]: micromolar affinity
- reduction in Bfl-1 binding relative to the peptide without the mutation [13, 17]: ~100 fold

Compound: CC[C@H](C)[C@H](NC(=O)[C@H](CCC(=O)O)NC(=O)[C@H](CC(=O)O)NC(=O)CNC(=O)[C@H](CC(C)C)NC(=O)[C@H](CCCNC(=N)N)NC(=O)[C@H](CCC(N)=O)NC(=O)[C@H](CC(C)C)NC(=O)[C@H](Cc1c[nH]cn1)NC(=O)[C@H](CCC(N)=O)NC(=O)[C@@H](NC(=O)[C@H](CC(C)C)NC(=O)[C@H](Cc1c[nH]c2ccccc12)NC(=O)[C@@H](NC(=O)[C@H](CCC(=O)O)NC(=O)[C@@H]1CCCN1C(=O)[C@H](CCCNC(=N)N)NC(C)=O)[C@@H](C)CC)[C@@H](C)O)C(=O)N[C@@H](CC(N)=O)C(=O)N[C@@H](C)C(=O)N[C@@H](Cc1ccc(O)cc1)C(=O)N[C@@H](Cc1ccc(O)cc1)C(=O)N[C@@H](C)C(=O)N[C@@H](CCCNC(=N)N)C(N)=O [MS3]
- depolarization response (in words) [7]: stronger response in Pfeiffer than MS1 or MS2
- binding affinity to Bcl-2 (in words) [10]: micromolar affinity
- binding affinity to Bcl-xL (in words) [11]: micromolar affinity
- binding affinity to Bcl-w (in words) [12]: several-hundred nanomolar affinity
- binding affinity to Bfl-1 (in words) [13]: several-hundred nanomolar affinity

Compound: RPEIWMGQGLRRLGDEINAYYAR [A12, Bim-BH3 variant clone from yeast surface display library]
- binding preference among KSBcl-2 and five human Bcl-2 family proteins [14]: bound to KSBci-2 and Mcl-1 in preference to Bcl-2, Bfl-1, Bcl-w, and to a lesser extent Bcl-xL

Compound: CCCC[C@H](NC(=O)[C@H](Cc1c[nH]c2ccccc12)NC(=O)[C@@H](NC(C)=O)[C@@H](C)CC)C(=O)N[C@H](C(=O)N[C@@H](CCC(N)=O)C(=O)NCC(=O)N[C@@H](CC(C)C)C(=O)N[C@@H](CCCNC(=N)N)C(=O)N[C@@]1(C)CCCC=CCCC[C@@](C)(C(=O)N[C@H](C(=O)N[C@@H](CC(N)=O)C(=O)N[C@@H](C)C(=O)N[C@@H](Cc2ccc(O)cc2)C(=O)N[C@@H](Cc2ccc(O)cc2)C(=O)N[C@@H](C)C(=O)N[C@@H](CCCNC(=N)N)C(=O)N[C@@H](CCCNC(=N)N)C(N)=O)[C@@H](C)CC)NC(=O)[C@H](CC(=O)O)NC(=O)CNC(=O)[C@H](CC(C)C)NC1=O)[C@@H](C)O [peptide 7, IWNleTQGLRXLGDXINAYYARR] (Ac-IW[Nle]TQGLR[S5]LGD[S5]INAYYARR-NH2; staple 9-13; N-terminus assumed)
- LDH release, membrane disruption (in words) [15]: membrane-disruptive

Compound: IWFAQEIDRIGDEVNAYYARR (See specification as filed for detailed description of substitutions and preferred embodiments) [B1, native, non-stapled B1 peptide]
- IC50 [16]: 90 nM

Compound: RPEIWITQGLRRIGDEFNAYYAR [Bim_A2eT_E2gG]
- depolarization response (in words) ([6]; Bcl-2/Myc 2924): depolarization response intermediate to that of Bim and MS1
- depolarization response (in words) [7]: depolarization response intermediate to that of Bim and MS1
- depolarization response (in words) ([8]; MDA-MB-231): depolarization response intermediate to that of Bim and MS1
- depolarization response (in words) ([9]; Mcl-1/Myc 2640): strong depolarization response

Compound: RPEIWLGQSLQRLGDEINAYYAR [B3, Bim-BH3 variant clone from yeast surface display library]
- binding preference among KSBcl-2 and five human Bcl-2 family proteins [14]: bound to KSBci-2 and Mcl-1 in preference to Bcl-2, Bfl-1, Bcl-w, and to a lesser extent Bcl-xL
